Data as given in the supplement of paper PMC11451515.

Tested on: P12-Ichikawa
Experiment: cell viability relative to DMSO control; higher = less cytotoxic
Details: 48 h
How it was run: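 In 1536-well plates, 5 μl of leukemia cells were seeded per well: 500 cells/well for NOMO1 or SEM and 1000 cells/well for P12-Ichikawa. Each line had first been adapted for at least four passages in each medium. Library compounds in DMSO were pin-dosed at 11 threefold concentrations between 47 μM and 0.79 nM, and CellTiter-Glo One luminescence was read after 48 h at 37°C. Viability is a per-plate percentage relative to DMSO wells, with cell-free wells as background.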

[1] = HPLM + 10% dialyzed FBS, 0.000781 µM
[2] = HPLM + 10% dialyzed FBS, 0.00234 µM
[3] = HPLM + 10% dialyzed FBS, 0.00702 µM
[4] = HPLM + 10% dialyzed FBS, 0.0211 µM
[5] = HPLM + 10% dialyzed FBS, 0.0632 µM
[6] = HPLM + 10% dialyzed FBS, 0.19 µM
[7] = HPLM + 10% dialyzed FBS, 0.569 µM
[8] = HPLM + 10% dialyzed FBS, 1.71 µM
[9] = HPLM + 10% dialyzed FBS, 5.12 µM
[10] = HPLM + 10% dialyzed FBS, 15.4 µM
[11] = HPLM + 10% dialyzed FBS, 46.1 µM
[12] = RPMI 5 mM glucose + 10% FBS, 0.000781 µM
[13] = RPMI 5 mM glucose + 10% FBS, 0.00234 µM
[14] = RPMI 5 mM glucose + 10% FBS, 0.00702 µM
[15] = RPMI 5 mM glucose + 10% FBS, 0.0211 µM
[16] = RPMI 5 mM glucose + 10% FBS, 0.0632 µM
[17] = RPMI 5 mM glucose + 10% FBS, 0.19 µM
[18] = RPMI 5 mM glucose + 10% FBS, 0.569 µM
[19] = RPMI 5 mM glucose + 10% FBS, 1.71 µM
[20] = RPMI 5 mM glucose + 10% FBS, 5.12 µM
[21] = RPMI 5 mM glucose + 10% FBS, 15.4 µM
[22] = RPMI 5 mM glucose + 10% FBS, 46.1 µM
[23] = RPMI 5 mM glucose + 10% dialyzed FBS, 0.000781 µM
[24] = RPMI 5 mM glucose + 10% dialyzed FBS, 0.00234 µM
[25] = RPMI 5 mM glucose + 10% dialyzed FBS, 0.00702 µM
[26] = RPMI 5 mM glucose + 10% dialyzed FBS, 0.0211 µM
[27] = RPMI 5 mM glucose + 10% dialyzed FBS, 0.0632 µM
[28] = RPMI 5 mM glucose + 10% dialyzed FBS, 0.19 µM
[29] = RPMI 5 mM glucose + 10% dialyzed FBS, 0.569 µM
[30] = RPMI 5 mM glucose + 10% dialyzed FBS, 1.71 µM
[31] = RPMI 5 mM glucose + 10% dialyzed FBS, 5.12 µM
[32] = RPMI 5 mM glucose + 10% dialyzed FBS, 15.4 µM
[33] = RPMI 5 mM glucose + 10% dialyzed FBS, 46.1 µM

Row | SMILES | cell viability [1] [%] | cell viability [2] [%] | cell viability [3] [%] | cell viability [4] [%] | cell viability [5] [%] | cell viability [6] [%] | cell viability [7] [%] | cell viability [8] [%] | cell viability [9] [%] | cell viability [10] [%] | cell viability [11] [%] | cell viability [12] [%] | cell viability [13] [%] | cell viability [14] [%] | cell viability [15] [%] | cell viability [16] [%] | cell viability [17] [%] | cell viability [18] [%] | cell viability [19] [%] | cell viability [20] [%] | cell viability [21] [%] | cell viability [22] [%] | cell viability [23] [%] | cell viability [24] [%] | cell viability [25] [%] | cell viability [26] [%] | cell viability [27] [%] | cell viability [28] [%] | cell viability [29] [%] | cell viability [30] [%] | cell viability [31] [%] | cell viability [32] [%] | cell viability [33] [%]
1 | CC(O)(C#Cc1ccc2c(c1)N(c1nc(N)ncc1Cl)CC2)c1nccs1 (centres undefined) | 111 | 123 | 121 | 71 | 116 | 123 | 126 | 121 | 117 | 116 | 96.8 | 107 | 118 | 123 | 79.2 | 127 | 115 | 121 | 127 | 126 | 115 | 74.3 | – | – | – | – | – | – | – | – | – | – | –
2 | O=C(Nc1ncc(-c2cc(C(F)F)nn2-c2c(Cl)cccc2Cl)s1)C1CC1 | 116 | 122 | 123 | 131 | 130 | 129 | 126 | 14.2 | 18.3 | 11 | 14.6 | – | – | – | – | – | – | – | – | – | – | – | – | – | – | – | – | – | – | – | – | – | –
3 | CNC[C@H](O)c1cccc(O)c1 | 92 | 95.4 | 103 | 12.5 | 107 | 102 | 108 | 116 | 111 | 105 | 109 | 84.8 | 98.4 | 94.8 | 15.9 | 101 | 109 | 103 | 109 | 99.5 | 103 | 114 | 84.5 | 84.4 | 89.1 | 26.2 | 97.9 | 99.5 | 101 | 96.3 | 91.2 | 105 | 98
4 | CCN(C(=O)C/1=C(O)/C2=C(C=CC=C2Cl)N(C)C1=O)C3=CC=CC=C3 | 93.7 | 100 | 98.1 | 102 | 97.9 | 93.2 | 95.9 | 77.6 | 31.8 | 2.09 | 3.36 | 90.3 | 97 | 98.7 | 105 | 88.8 | 77.5 | 82.7 | 52.7 | 25.4 | 1.95 | 2.3 | 85.2 | 91.3 | 91.5 | 96.4 | 99.6 | 78.5 | 82.8 | 46.1 | 16.3 | 2.21 | 3.11
5 | COCCOc1nc(-c2ccc(Cl)c(Cl)c2)n(-c2ccc(NC(=O)CCl)cc2)n1 | 96.6 | 97.3 | 102 | 103 | 103 | 106 | 99.1 | 104 | 84.4 | 99.8 | 98.5 | 89.4 | 101 | 90.1 | 104 | 98.9 | 101 | 93.4 | 107 | 79.7 | 79.9 | 88.7 | 84.1 | 92.2 | 86.1 | 94.6 | 91.2 | 93.7 | 98.9 | 86.4 | 76 | 77.8 | 86.9
6 | O=C1Nc2ccc(I)cc2/C1=C/c1cc(Br)c(O)c(Br)c1 | 103 | 100 | 103 | 105 | 109 | 105 | 108 | 102 | 102 | 98.2 | 86.4 | 99 | 110 | 106 | 103 | 101 | 104 | 102 | 104 | 101 | 96.7 | 79 | 106 | 111 | 110 | 107 | 103 | 111 | 108 | 101 | 100 | 93.4 | 84
7 | C[C@]12CC[C@@H]3c4ccc(O)cc4CC[C@H]3[C@@H]1C[C@@H](O)[C@@H]2O | 117 | 115 | 114 | 120 | 113 | 111 | 119 | 110 | 112 | 104 | 104 | 120 | 115 | 116 | 114 | 125 | 129 | 126 | 124 | 123 | 108 | 107 | 116 | 120 | 125 | 123 | 115 | 117 | 123 | 118 | 109 | 114 | 105
8 | Cc1[nH]c(/C=C2\C(=O)Nc3ccccc32)c(C)c1CCC(=O)O | 95.3 | 101 | 99.3 | 105 | 111 | 114 | 88.7 | 104 | 73.1 | 32.2 | 6.87 | 105 | 103 | 93.9 | 110 | 110 | 118 | 87.1 | 106 | 72.9 | 42 | 7.11 | 102 | 105 | 113 | 110 | 113 | 112 | 91.1 | 101 | 82.3 | 65.2 | 11.2
9 | CN[C@@H]1Cc2cccc3[nH]c(=O)n(c23)C1 | 124 | 123 | 114 | 115 | 122 | 117 | 108 | 117 | 108 | 106 | 111 | – | – | – | – | – | – | – | – | – | – | – | 122 | 122 | 116 | 130 | 117 | 123 | 115 | 109 | 108 | 111 | 105
10 | Nc1nnc(-c2cccc(Cl)c2Cl)c(N)n1 | 87.5 | 105 | 104 | 10.7 | 107 | 106 | 99.7 | 104 | 102 | 112 | 102 | 90.2 | 98.1 | 95.8 | 11.9 | 100 | 106 | 99.6 | 90.5 | 102 | 102 | 91 | 83.8 | 88.4 | 87.7 | 29.6 | 95 | 97.7 | 99.4 | 97.5 | 98.7 | 105 | 92.1
11 | CC[C@H](C)C(=O)O[C@H]1C[C@H](O)\C=C2\C=C/[C@H](C)[C@H](CC[C@@H](O)C[C@@H](O)CC(O)=O)[C@@H]12 | 112 | 116 | 105 | 112 | 111 | 109 | 107 | 97.1 | 98.2 | 96.1 | 86.7 | 107 | 106 | 107 | 113 | 116 | 110 | 106 | 104 | 98.1 | 98.9 | 96.5 | 114 | 102 | 109 | 109 | 111 | 117 | 106 | 106 | 105 | 101 | 92.1
12 | CC/1=C(/C(CC(=O)N1)C2=CC=C(C=C2)C(F)(F)F)C(=O)NC3=C(F)C=C4[NH]N=CC4=C3 (centres undefined) | 93.5 | 103 | 101 | 102 | 101 | 99.1 | 100 | 97.3 | 98.4 | 58.6 | 44.6 | 96.2 | 104 | 102 | 100 | 108 | 99.9 | 104 | 98.3 | 98.3 | 66.9 | 62 | 95.3 | 99.8 | 99.9 | 101 | 104 | 105 | 107 | 96.9 | 107 | 66.5 | 47.6
13 | O=C(O)/C=C/c1ccc(O)c(O)c1 | 118 | 113 | 105 | 112 | 110 | 103 | 107 | 99.2 | 105 | 88.3 | 18.3 | 106 | 111 | 111 | 112 | 108 | 106 | 113 | 117 | 105 | 93.4 | 6.72 | 100 | 120 | 105 | 116 | 117 | 110 | 115 | 103 | 99.7 | 88.7 | 7.01
14 | Cn1c(=O)n(-c2ccc(C(C)(C)C#N)cc2)c2c3cc(-c4cnc5ccccc5c4)ccc3ncc21 | 108 | 120 | 113 | 105 | 110 | 98 | 92.1 | 43.2 | 18.2 | 13.3 | 17.6 | 114 | 108 | 106 | 90.6 | 88.2 | 82.7 | 67.6 | 67.2 | 42.1 | 10.7 | 12.1 | 110 | 117 | 111 | 105 | 101 | 82 | 81.1 | 57 | 33.4 | 15.3 | 16.1
15 | CCC(=O)N[C@H]1CC[C@H](C(=O)N(C)c2ccc(-c3nc4ccccc4o3)cc2)C1 | 95.4 | 97.1 | 101 | 102 | 100 | 99.5 | 110 | 103 | 107 | 104 | 84.4 | 92.3 | 95.4 | 96.4 | 91.3 | 101 | 105 | 108 | 95.6 | 97.5 | 100 | 54.8 | 89.9 | 92.2 | 91.5 | 98.3 | 94 | 99.7 | 98.2 | 109 | 99 | 94.6 | 65.1
16 | CC1(C)CNc2cc(NC(=O)c3cccnc3NCc3ccncc3)ccc21 | 120 | 115 | 125 | 121 | 128 | 116 | 117 | 118 | 112 | 110 | 101 | 127 | 117 | 122 | 116 | 115 | 106 | 119 | 117 | 111 | 105 | 107 | 121 | 124 | 128 | 121 | 120 | 120 | 123 | 112 | 113 | 113 | 96.1
